pIC50: −log10 of the molar value.
Biological target: Rho-associated protein kinase 1 (Homo sapiens, UniProt Q13464)
Experiment: In Vitro Assay
Conditions: pH 7.5

Chain of Rho-associated protein kinase 1 (Q13464 whole entry): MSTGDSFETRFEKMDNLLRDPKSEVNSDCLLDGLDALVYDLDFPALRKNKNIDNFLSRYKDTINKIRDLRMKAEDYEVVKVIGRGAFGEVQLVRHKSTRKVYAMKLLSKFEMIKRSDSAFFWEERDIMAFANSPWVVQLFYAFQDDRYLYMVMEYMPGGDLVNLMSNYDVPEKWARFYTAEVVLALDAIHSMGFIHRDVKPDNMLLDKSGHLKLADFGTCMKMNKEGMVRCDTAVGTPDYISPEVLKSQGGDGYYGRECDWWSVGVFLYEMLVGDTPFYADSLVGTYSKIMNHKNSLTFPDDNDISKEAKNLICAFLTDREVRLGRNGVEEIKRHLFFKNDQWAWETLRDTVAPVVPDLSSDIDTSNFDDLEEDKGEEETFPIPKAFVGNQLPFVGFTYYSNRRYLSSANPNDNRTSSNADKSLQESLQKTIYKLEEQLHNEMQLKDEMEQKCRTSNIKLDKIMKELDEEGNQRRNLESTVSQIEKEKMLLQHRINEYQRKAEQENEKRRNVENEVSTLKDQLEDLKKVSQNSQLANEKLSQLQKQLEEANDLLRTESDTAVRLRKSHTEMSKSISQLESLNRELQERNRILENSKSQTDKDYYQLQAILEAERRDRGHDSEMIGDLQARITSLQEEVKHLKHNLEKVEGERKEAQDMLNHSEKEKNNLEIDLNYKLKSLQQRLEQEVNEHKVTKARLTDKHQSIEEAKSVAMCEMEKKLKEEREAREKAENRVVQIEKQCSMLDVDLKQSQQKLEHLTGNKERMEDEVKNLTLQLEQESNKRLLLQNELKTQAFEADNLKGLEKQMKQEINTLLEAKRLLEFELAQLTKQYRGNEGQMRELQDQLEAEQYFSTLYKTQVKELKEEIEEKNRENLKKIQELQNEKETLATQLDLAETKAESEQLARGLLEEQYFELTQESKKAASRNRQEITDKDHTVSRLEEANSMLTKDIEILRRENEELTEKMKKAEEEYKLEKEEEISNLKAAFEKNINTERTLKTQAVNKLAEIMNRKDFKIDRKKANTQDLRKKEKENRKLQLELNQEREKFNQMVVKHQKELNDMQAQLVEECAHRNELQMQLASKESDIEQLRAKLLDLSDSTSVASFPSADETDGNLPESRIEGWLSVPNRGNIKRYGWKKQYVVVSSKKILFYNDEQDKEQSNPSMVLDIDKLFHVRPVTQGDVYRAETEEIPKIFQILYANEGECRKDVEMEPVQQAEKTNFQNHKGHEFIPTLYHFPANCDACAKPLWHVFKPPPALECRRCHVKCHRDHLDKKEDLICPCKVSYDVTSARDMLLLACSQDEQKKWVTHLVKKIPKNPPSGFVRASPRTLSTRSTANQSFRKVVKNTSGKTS

## CNC(=O)C[C@@H](NC(=O)c1ccc(-c2cn[nH]c2)c(C)c1)c1ccccc1 [US9458110, 252]
  pIC50: 7.39

Source: BindingDB's records for patent US9458110 (Bristol Myers Squibb, 2016)
